Test results: EPA's ToxValDB 9.5 (doi:10.2903/j.efsa.2011.1941)

How the values were obtained:
[1] = test system: Rattus norvegicus
[2] = test system: Aphidius rhopalosiphi; conditions: chronic/long-term
[3] = test system: Apis mellifera; conditions: acute; duration: 48 hours; dermal; mortality
[4] = test system: Pimephales promelas; conditions: chronic/long-term; duration: 36 days; growth
[5] = test system: Tagia sp.
[6] = test system: Colinus virginianus
[7] = test system: Anas platyrhynchos
[8] = test system: Lepomis macrochirus; conditions: acute; duration: 96 hours; mortality
[9] = test system: Typhlodromus pyri; conditions: chronic/long-term
[10] = test system: Daphnia magna; conditions: chronic/long-term; duration: 21 days; reproduction

Row | SMILES | NOAEL ([1]; short-term, duration: 6 days) [mg/kg-day] | LEL ([2]; mortality) [g/ha] | LEL ([2]; reproduction) [g/ha] | LD50 [3] [µg/piece] | NOEC [4] [mg/L] | LC50 ([5]; acute, duration: 14 days, mortality) [mg/kg] | NOEC ([5]; chronic/long-term, duration: 56 days, reproduction) [mg/kg] | LC50 ([6]; acute, oral, diet, mortality) [mg/kg-day] | LD50 ([6]; acute, oral, mortality) [mg/kg-day] | NOEC ([6]; reproduction developmental) [mg/kg-day] | NOEC ([7]; reproductive) [mg/kg-day] | LC50 ([7]; short-term, oral, feed, mortality) [mg/kg-day] | LD50 ([1]; acute, oral, mortality) [mg/kg-day] | NOEL ([1]; chronic) [mg/kg-day] | NOAEL ([1]; chronic, duration: 2 years, hematological) [mg/kg-day] | NOAEL ([1]; subchronic, duration: 90 days, oral, hematological) [mg/kg-day] | LC50 [8] [µg/mL] | LEL ([9]; duration: 7 days, mortality) [g/ha] | LEL ([9]; reproduction) [g/ha] | NOEC [10] [mg/L]
1 | Nc1ccc(OC(F)(F)F)cc1 [4-Trifluoromethoxyaniline] | 0.5 | – | – | – | – | – | – | – | – | – | – | – | – | – | – | – | – | – | – | –
2 | O=C(NC(=O)c1ccccc1Cl)Nc1ccc(OC(F)(F)F)cc1 [Triflumuron] | – | 300 | 300 | > 200 | ≥ 0.0228 | > 500 | > 378 | > 805 | 561 | 1.65 | 6.9 | 180 | > 5000 | 142 | 0.82 | 3.6 | > 0.0208 | 384 | 384 | 3.2e-05
